Data on 7 molecules can be found in publication PMC6977461 (Chemical Science, 2019).

Where two headings read alike, the source gives them in different places. Some results are limits rather than exact numbers.

Data set [1] is described as follows: mouse plasma degradation assay (Methods MP1-MP3). The format is in vitro ADME. Here is the method:
The oligomer was then diluted 1/50 with a solution of plasma/PBS pH 7.4 (1/1) to afford a final concentration of 5μM and incubated at 37°C. […] (t = 0 min was determined using the reaction without plasma). The samples were frozen at -80°C before analysis. […] The supernatant was analyzed by LC-MS. The time course of oligomer degradation was determined by integrating the area of the peak in the extracted ion chromatogram. […] The oligomer was then diluted 1/50 with a solution of plasma/PBS pH 7.4 (1/1) to afford a final concentration of 5μM and incubated at 37°C. […] The oligomer was then diluted 1/50 with a solution of plasma/PBS pH 7.4 (1/1) to afford a final concentration of 5μM and incubated at 37°C. […] Animals. […] A standard chow diet (RM1 (E) 801492, SDS) and tap water were provided ad libitum. All animal protocols done by Physiogenex S.A.S were reviewed and approved by the local (Comité […] national ([…]

The target of data set [2] is T1, mouse GLP-1 receptor (Mus musculus, UniProt O35659).
T1 construct: βTC6 cells which express GLP-1R endogenously; host or cells: βTC6 cells
T1 sequence (O35659 22-463): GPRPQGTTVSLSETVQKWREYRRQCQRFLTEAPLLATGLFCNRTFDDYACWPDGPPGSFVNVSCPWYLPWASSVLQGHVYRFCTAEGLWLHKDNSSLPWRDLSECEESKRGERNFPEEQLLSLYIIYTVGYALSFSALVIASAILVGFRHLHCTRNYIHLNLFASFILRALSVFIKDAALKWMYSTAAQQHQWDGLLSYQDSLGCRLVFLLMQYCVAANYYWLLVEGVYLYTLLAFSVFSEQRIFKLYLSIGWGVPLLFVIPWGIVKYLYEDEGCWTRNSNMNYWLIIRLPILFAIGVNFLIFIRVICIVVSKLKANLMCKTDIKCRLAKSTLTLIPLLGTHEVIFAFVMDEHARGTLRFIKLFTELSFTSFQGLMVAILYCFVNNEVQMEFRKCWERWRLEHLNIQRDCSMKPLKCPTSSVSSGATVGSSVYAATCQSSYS
The experiment in a line: cAMP production in βTC6 cells expressing GLP-1R endogenously (Method C2). Format: cell-based. The conditions noted are these: for Potency (%), Table S1: from EC50 in βTC6 cAMP assay, footnote: compare to GLP-1-NH2 (2); for EC50: read-out: EC50 (GLP-1R potency), Table S1. In general terms: Cyclic AMP is a second messenger, typically raised through Gs and lowered through Gi signalling.
Method:  HEK-293T cells (Multispan inc., lot#.DC1267-062017) were suspended in cell culture media
(DMEM 1X + GlutaMAX (Gibco 31966-021)) complemented with FBS 10% (Sigma Aldrich
 βTC6 cells were suspended in HBSS buffer (Invitrogen) complemented with 20 mM HEPES (pH
In vitro pharmacology on HEK-293T cells (EC50: Method C1)
cells (Multispan inc., lot#.DC1267-062017) was determined by measuring their effects on cAMP
production using the HTRF detection method (performed by UREkA SARL). The cells were distributed
in 384-well microplates at a density of 1.0x10^4 cells/well. Stock solutions of the test compounds or the
reference agonist were prepared at a concentration of 1 mM in DMSO. Then, compounds to be tested
were diluted in cell culture media and transferred to the plate containing the cells to reach final assay

The molecule `CC[C@H](C)[C@H](NC(=O)[C@H](Cc1ccccc1)NC(=O)[C@H](CCC(=O)O)NC(=O)[C@H](CCCCN)NC(=O)[C@H](C)NC(=O)[C@H](C)NC(=O)[C@H](CCC(N)=O)NC(=O)CNC(=O)[C@H](CCC(=O)O)NC(=O)[C@H](CC(C)C)NC(=O)[C@H](Cc1ccc(O)cc1)NC(=O)[C@H](CO)NC(=O)[C@H](CO)NC(=O)[C@@H](NC(=O)[C@H](CC(=O)O)NC(=O)[C@H](CO)NC(=O)[C@@H](NC(=O)[C@H](Cc1ccccc1)NC(=O)[C@@H](NC(=O)CNC(=O)[C@H](CCC(=O)O)NC(=O)[C@H](C)NC(=O)[C@@H](N)Cc1cnc[nH]1)[C@@H](C)O)[C@@H](C)O)C(C)C)C(=O)N[C@@H](C)C(=O)N[C@@H](Cc1c[nH]c2ccccc12)C(=O)N[C@@H](CC(C)C)C(=O)N[C@H](C(=O)N[C@@H](CCCCN)C(=O)NCC(=O)N[C@@H](CCCNC(=N)N)C(=O)NCC(N)=O)C(C)C` [compound 2, GLP-1-NH2, reference compound] had a half-life at 5 µM in data set [1] (mouse, plasma, pH 7.4) of 8.4 min.
For the molecule `CC[C@H](C)[C@H](NC(=O)[C@H](Cc1ccccc1)NC(=O)[C@H](CCC(=O)O)NC(=O)[C@H](CCCCN)NC(=O)[C@H](C)NC(=O)[C@H](C)NC(=O)[C@H](CCC(N)=O)NC(=O)CNC(=O)[C@H](CCC(=O)O)NC(=O)[C@H](CC(C)C)NC(=O)[C@H](Cc1ccc(O)cc1)NC(=O)[C@H](CO)NC(=O)[C@H](CO)NC(=O)[C@@H](NC(=O)[C@H](CC(=O)O)NC(=O)[C@H](CO)NC(=O)[C@@H](NC(=O)[C@H](Cc1ccccc1)NC(=O)[C@@H](NC(=O)CNC(=O)[C@H](CCC(=O)O)NC(=O)CC[C@H](C)NC(=O)[C@@H](N)Cc1c[nH]cn1)[C@@H](C)O)[C@@H](C)O)C(C)C)C(=O)N[C@@H](C)C(=O)N[C@@H](Cc1c[nH]c2ccccc12)C(=O)N[C@@H](CC(C)C)C(=O)N[C@H](C(=O)N[C@@H](CCCCN)C(=O)NCC(=O)N[C@@H](CCCNC(=N)N)C(=O)NCC(N)=O)C(C)C` [compound 4], in data set [1] (mouse plasma diluted 1/1 with PBS, mouse plasma/PBS pH 7.4 (1/1), 5 µM, 37 °C, acetonitrile quench, LC-MS extracted ion chromatogram, MP1 for 2-8, MP2 for 9-11, MP3 for 12-14, mean, n = 3, read-out: Mouse plasma t1/2 (converted)), the half-life at 5 µM was 13.8 min.
As to `CC[C@H](C)[C@H](NC(=O)[C@H](Cc1ccccc1)NC(=O)[C@H](CCC(=O)O)NC(=O)[C@H](CCCCN)NC(=O)[C@H](C)NC(=O)[C@H](C)NC(=O)[C@H](CCC(N)=O)NC(=O)CNC(=O)[C@H](CCC(=O)O)NC(=O)[C@H](CC(C)C)NC(=O)[C@H](Cc1ccc(O)cc1)NC(=O)[C@H](CO)NC(=O)[C@H](CO)NC(=O)[C@@H](NC(=O)[C@H](CC(=O)O)NC(=O)[C@H](CO)NC(=O)[C@@H](NC(=O)[C@H](Cc1ccccc1)NC(=O)[C@@H](NC(=O)CNC(=O)[C@H](CCC(=O)O)NC(=O)NC[C@H](CCC(=O)O)NC(=O)[C@@H](N)Cc1c[nH]cn1)[C@@H](C)O)[C@@H](C)O)C(C)C)C(=O)N[C@@H](C)C(=O)N[C@@H](Cc1c[nH]c2ccccc12)C(=O)N[C@@H](CC(C)C)C(=O)N[C@H](C(=O)N[C@@H](CCCCN)C(=O)NCC(=O)N[C@@H](CCCNC(=N)N)C(=O)NCC(N)=O)C(C)C` [S5], in data set [2], the “Potency (%), Table S1” value is less than 0.01% and the EC50 is more than 10000 nM.
Take `CC[C@H](C)[C@H](NC(=O)[C@H](Cc1ccccc1)NC(=O)[C@H](CCC(=O)O)NC(=O)[C@H](CCCCN)NC(=O)[C@H](C)NC(=O)[C@H](C)NC(=O)[C@H](CCC(N)=O)NC(=O)CNC(=O)[C@H](CCC(=O)O)NC(=O)[C@H](CC(C)C)NC(=O)[C@H](Cc1ccc(O)cc1)NC(=O)[C@H](CO)NC(=O)[C@H](CO)NC(=O)[C@@H](NC(=O)[C@H](CC(=O)O)NC(=O)[C@H](CO)NC(=O)[C@@H](NC(=O)[C@H](Cc1ccccc1)NC(=O)[C@@H](NC(=O)CNC(=O)[C@H](CCC(=O)O)NC(=O)NC[C@@H](NC(=O)[C@@H](N)Cc1c[nH]cn1)[C@@H](C)CC)[C@@H](C)O)[C@@H](C)O)C(C)C)C(=O)N[C@@H](C)C(=O)N[C@@H](Cc1c[nH]c2ccccc12)C(=O)N[C@@H](CC(C)C)C(=O)N[C@H](C(=O)N[C@@H](CCCCN)C(=O)NCC(=O)N[C@@H](CCCNC(=N)N)C(=O)NCC(N)=O)C(C)C` [S6]: in data set [2], the “Potency (%), Table S1” value is reported as less than 0.01% and the EC50 was more than 10000 nM.
Consider `CC[C@H](C)[C@H](NC(=O)[C@H](Cc1ccccc1)NC(=O)[C@H](CCC(=O)O)NC(=O)[C@H](CCCCN)NC(=O)[C@H](C)NC(=O)[C@H](C)NC(=O)[C@H](CCC(N)=O)NC(=O)CNC(=O)[C@H](CCC(=O)O)NC(=O)[C@H](CC(C)C)NC(=O)[C@H](Cc1ccc(O)cc1)NC(=O)[C@H](CO)NC(=O)[C@H](CO)NC(=O)[C@@H](NC(=O)[C@H](CC(=O)O)NC(=O)[C@H](CO)NC(=O)[C@@H](NC(=O)[C@H](Cc1ccccc1)NC(=O)[C@@H](NC(=O)CNC(=O)[C@H](CCC(=O)O)NC(=O)NC[C@H](CS)NC(=O)[C@@H](N)Cc1c[nH]cn1)[C@@H](C)O)[C@@H](C)O)C(C)C)C(=O)N[C@@H](C)C(=O)N[C@@H](Cc1c[nH]c2ccccc12)C(=O)N[C@@H](CC(C)C)C(=O)N[C@H](C(=O)N[C@@H](CCCCN)C(=O)NCC(=O)N[C@@H](CCCNC(=N)N)C(=O)NCC(N)=O)C(C)C` [S3], for which, in data set [2], the “Potency (%), Table S1” value was found to be 0% and the EC50 worked out at 65 nM.
`CC[C@H](C)[C@H](NC(=O)[C@H](Cc1ccccc1)NC(=O)[C@H](CCC(=O)O)NC(=O)[C@H](CCCCN)NC(=O)[C@H](C)NC(=O)[C@H](C)NC(=O)[C@H](CCC(N)=O)NC(=O)CNC(=O)[C@H](CCC(=O)O)NC(=O)[C@H](CC(C)C)NC(=O)[C@H](Cc1ccc(O)cc1)NC(=O)[C@H](CO)NC(=O)[C@H](CO)NC(=O)[C@@H](NC(=O)[C@H](CC(=O)O)NC(=O)[C@H](CO)NC(=O)[C@@H](NC(=O)[C@H](Cc1ccccc1)NC(=O)[C@@H](NC(=O)CNC(=O)[C@H](CCC(=O)O)NC(=O)NC[C@H](Cc1ccccc1)NC(=O)[C@@H](N)Cc1c[nH]cn1)[C@@H](C)O)[C@@H](C)O)C(C)C)C(=O)N[C@@H](C)C(=O)N[C@@H](Cc1c[nH]c2ccccc12)C(=O)N[C@@H](CC(C)C)C(=O)N[C@H](C(=O)N[C@@H](CCCCN)C(=O)NCC(=O)N[C@@H](CCCNC(=N)N)C(=O)NCC(N)=O)C(C)C` [S9]: in data set [2], the “Potency (%), Table S1” value was 21% and the EC50 was found to be 0.5 nM.
On to `CC[C@H](C)[C@H](NC(=O)[C@H](Cc1ccccc1)NC(=O)[C@H](CCC(=O)O)NC(=O)[C@H](CCCCN)NC(=O)[C@H](C)NC(=O)[C@H](C)NC(=O)[C@H](CCC(N)=O)NC(=O)CNC(=O)[C@H](CCC(=O)O)NC(=O)[C@H](CC(C)C)NC(=O)[C@H](Cc1ccc(O)cc1)NC(=O)[C@H](CO)NC(=O)[C@H](CO)NC(=O)[C@@H](NC(=O)[C@H](CC(=O)O)NC(=O)[C@H](CO)NC(=O)[C@@H](NC(=O)[C@H](Cc1ccccc1)NC(=O)[C@@H](NC(=O)CNC(=O)[C@H](CCC(=O)O)NC(=O)CNC(=O)[C@@H](N)Cc1c[nH]cn1)[C@@H](C)O)[C@@H](C)O)C(C)C)C(=O)N[C@@H](C)C(=O)N[C@@H](Cc1c[nH]c2ccccc12)C(=O)N[C@@H](CC(C)C)C(=O)N[C@H](C(=O)N[C@@H](CCCCN)C(=O)NCC(=O)N[C@@H](CCCNC(=N)N)C(=O)NCC(N)=O)C(C)C` [S12, reference compound], for which, in data set [2], the “Potency (%), Table S1” value worked out at 42%.

The term EC50 denotes the concentration giving half of the maximal effect.
